This assay deals with T1, Itk F434G/Δ429 (Itkas) (Homo sapiens, UniProt Q08881, DEL429-429/F435G).
T1 sequence (Q08881 with tags, fused parts or gaps DEL429-429/F435G): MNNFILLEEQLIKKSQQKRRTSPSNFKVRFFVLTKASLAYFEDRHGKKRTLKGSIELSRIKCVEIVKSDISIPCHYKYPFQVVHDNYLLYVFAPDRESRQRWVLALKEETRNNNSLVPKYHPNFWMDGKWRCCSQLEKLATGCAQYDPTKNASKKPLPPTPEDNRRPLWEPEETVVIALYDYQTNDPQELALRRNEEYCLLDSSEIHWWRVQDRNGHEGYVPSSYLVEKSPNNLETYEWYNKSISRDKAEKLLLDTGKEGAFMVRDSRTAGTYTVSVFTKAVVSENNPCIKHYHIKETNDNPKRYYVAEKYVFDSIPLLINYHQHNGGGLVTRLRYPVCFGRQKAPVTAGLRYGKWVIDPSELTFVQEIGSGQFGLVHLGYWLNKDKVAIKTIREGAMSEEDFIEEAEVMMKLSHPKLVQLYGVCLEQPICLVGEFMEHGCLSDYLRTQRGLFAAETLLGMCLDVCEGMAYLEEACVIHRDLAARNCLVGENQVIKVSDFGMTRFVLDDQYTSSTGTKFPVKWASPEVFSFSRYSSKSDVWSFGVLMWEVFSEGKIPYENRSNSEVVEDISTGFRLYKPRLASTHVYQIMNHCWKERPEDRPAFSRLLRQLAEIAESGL
The class given is cell-based.

Each structure is given as a SMILES string.

Broadly, the IC50 is the concentration at which inhibition is half-maximal. A higher IC50 goes with lower potency. The compound `CC(C)(C)n1nc(Cc2cccc3ccccc23)c2c(N)ncnc21` [1-NM-PP1] returned an IC50 of about 0.05 µM.

The values are drawn from publication PMC5730406 (European journal of immunology, 2015).
